# Experimental data published in patent US9963703B2, “Compositions and methods for treating pancreatic cancer” (Autotelic LLC, priority 2016, dated 2018).
# Tests used:
# TGFβ2 [1] = assay: TGFβ2 secretion/expression in HUP-T3 pancreatic cancer cells; format: cell-based
# Description: (§1) The aim of the study was to determine the effect of AP12009 (trabedersen) treatment in combination with 5-Fluorouracil (5-FU) on TGFβ2 secretion and on cellular proliferation of HUP-T3 pancreatic cancer cells and WiDr colon cancer cells in vitro.
# [2] = system: HUP-T3 pancreatic cancer cells; assay: Cellular proliferation of HUP-T3 pancreatic cancer cells in vitro; settings: HUP-T3; treatment on day 1 for 5 h; measured after 7 days
# Description: as §1
# TGFβ2 [3] = assay: TGFβ2 secretion/expression in WiDr colon cancer cells; format: cell-based
# Description: as §1
# WiDr colon cancer cells = assay: Cellular proliferation of WiDr colon cancer cells in vitro; format: cell-based; settings: treatment on day 1 for 5 h only
# Description: as §1
smiles,measurement,setting,value
"O=c1[nH]cc(F)c(=O)[nH]1 [5-FU, 5-Fluorouracil, reference compound]",5-FU concentrations at which TGFβ2 was suppressed,TGFβ2 [1],> 75 µM
same,5-FU concentrations that dose-dependently reduced cell proliferation,[2],> 10 µM
same,5-FU concentrations at which TGFβ2 was suppressed,TGFβ2 [3],> 75 µM
same,5-FU concentrations that concentration-dependently reduced cell proliferation,WiDr colon cancer cells,> 38 µM
